Measurements as given in patent publication US12226523B2, “Method for preparing self-assembled nanoparticle releasing soluble microneedle structure” (RESEARCH & BUSINESS FOUNDATION SUNGKYUNKWAN UNIVERSITY, priority 2016, dated 2025).

Tested on: cells (HCT-116)
Assay: Intracellular delivery of nanoparticles produced from soluble microneedles (confocal fluorescence microscope)
Type: cell-based
Settings: HCT-116 cells, 4 hours after treatment
Procedure: To this end, soluble microneedles in which a hydrophobic fluorescent material, DiD (Invitrogen, Carlsbad, CA, USA), used in cell membrane staining, was loaded were manufactured according to the method described in Example 1. Afterward, cells (HCT-116) were treated with a solution in which the microneedles were dissolved according to the method of Example 2, 4 hours later, intracellular delivery of nanoparticles produced from the soluble microneedles was observed using a confocal fluorescence microscope.

CCCCCCCCCCCCCCCCCCN1C(=CC=CC=CC2=[N+](CCCCCCCCCCCCCCCCCC)c3ccccc3C2(C)C)C(C)(C)c2ccccc21.[I-] [DiD, 1,1′-dioctadecyl-3,3,3′,3′-tetramethylindodicarbocyanine iodide]
cellular localisation of the hydrophobic fluorescent material DiD: stained the cell membrane
